# Laboratory results from ChEMBL document CHEMBL1955743, “Potent inhibitors of LpxC for the treatment of Gram-negative infections” (J Med Chem, 2012).
# Tests used:
# Staphylococcus aureus = assay: Antibacterial activity against Staphylococcus aureus ATCC 29213 after 16 to 20 hrs by broth microdilution method; type: functional
# [1] = Clearance in rat at 10 mg/kg, iv; type: ADME, organism-based; design: dose 10 mg/kg, route intravenous; details: in vivo
# Pseudomonas aeruginosa [2] = assay: Antibacterial activity against Pseudomonas aeruginosa PAO1 after 16 to 20 hrs by broth microdilution method; type: functional
# [3] = Volume of distribution at steady state in rat at 10 mg/kg, iv; type: ADME, organism-based; design: dose 10 mg/kg, route intravenous; details: in vivo, read-out: Vdss
# [4] = AUC in rat at 10 mg/kg, iv; type: ADME, organism-based; design: dose 10 mg/kg, route intravenous; details: plasma
# [5] = target: T1, UDP-3-O-acyl-N-acetylglucosamine deacetylase (Pseudomonas aeruginosa (strain ATCC 15692 / PAO1 / 1C / PRS 101 / LMG12228), UniProt P47205); assay: Inhibition of Pseudomonas aeruginosa LpxC using UDP-3-O-(R-hydroxydecanoyl)-N-acetylglucosamine incubated for 30 mins prior to substrate addition measured after 60 mins by mass spectrophotometry
# T1 sequence (P47205 whole entry): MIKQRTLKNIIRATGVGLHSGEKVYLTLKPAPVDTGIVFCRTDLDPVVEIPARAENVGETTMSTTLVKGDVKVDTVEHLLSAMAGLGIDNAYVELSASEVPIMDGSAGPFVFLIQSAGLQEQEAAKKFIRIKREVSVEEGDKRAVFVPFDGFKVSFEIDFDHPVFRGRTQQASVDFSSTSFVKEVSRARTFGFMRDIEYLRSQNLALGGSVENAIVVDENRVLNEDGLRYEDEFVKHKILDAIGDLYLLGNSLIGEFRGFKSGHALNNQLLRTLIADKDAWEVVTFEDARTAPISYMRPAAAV
# [6] = Half life in rat at 10 mg/kg, iv; type: ADME, organism-based; design: dose 10 mg/kg, route intravenous; details: in vivo
# Acinetobacter baumannii = assay: Antibacterial activity against Acinetobacter baumannii after 16 to 20 hrs by broth microdilution method; type: functional
# Klebsiella pneumoniae = assay: Antibacterial activity against Klebsiella pneumoniae after 16 to 20 hrs by broth microdilution method; type: functional
# Pseudomonas aeruginosa [7] = assay: Antibacterial activity against Pseudomonas aeruginosa after 16 to 20 hrs by broth microdilution method; type: functional
# Citrobacter freundii = assay: Antibacterial activity against Citrobacter freundii after 16 to 20 hrs by broth microdilution method; type: functional
# Escherichia coli = assay: Antibacterial activity against Escherichia coli after 16 to 20 hrs by broth microdilution method; type: functional
# Klebsiella aerogenes = assay: Antibacterial activity against Enterobacter aerogenes after 16 to 20 hrs by broth microdilution method; type: functional
# Pseudomonas aeruginosa [8] = assay: Antibacterial activity against Pseudomonas aeruginosa clinical isolates after 16 to 20 hrs by broth microdilution method; type: functional
# Stromelysin-2 = Stromelysin-2 (Homo sapiens, UniProt P09238); assay: Inhibition of human MMP10
# Stromelysin-1 = Stromelysin-1 (Homo sapiens, UniProt P08254); assay: Inhibition of human MMP3
# [9] = target: Matrix metalloproteinase-14 (Homo sapiens, UniProt P50281); assay: Inhibition of human MMP14
# Interstitial collagenase = Interstitial collagenase (Homo sapiens, UniProt P03956); assay: Inhibition of human MMP1
# Interstitial collagenase, sequence (P03956 whole entry): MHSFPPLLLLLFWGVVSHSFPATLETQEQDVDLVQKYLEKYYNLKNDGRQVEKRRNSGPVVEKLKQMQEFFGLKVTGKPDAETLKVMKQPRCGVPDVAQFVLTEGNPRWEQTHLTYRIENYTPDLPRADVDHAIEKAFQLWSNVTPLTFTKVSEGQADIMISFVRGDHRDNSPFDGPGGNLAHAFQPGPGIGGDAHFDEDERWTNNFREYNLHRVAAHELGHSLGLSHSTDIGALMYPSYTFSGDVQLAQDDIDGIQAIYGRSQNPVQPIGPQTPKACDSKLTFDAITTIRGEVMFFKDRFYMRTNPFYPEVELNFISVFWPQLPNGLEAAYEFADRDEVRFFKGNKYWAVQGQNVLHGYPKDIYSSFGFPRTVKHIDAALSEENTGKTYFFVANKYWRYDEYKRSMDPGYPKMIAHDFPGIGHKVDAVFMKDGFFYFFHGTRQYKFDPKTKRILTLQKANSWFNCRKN
# [10] = Fraction unbound in human plasma; type: ADME, cell-free
# Neutrophil collagenase = Neutrophil collagenase (Homo sapiens, UniProt P22894); assay: Inhibition of human MMP8
# Neutrophil collagenase, sequence (P22894 whole entry): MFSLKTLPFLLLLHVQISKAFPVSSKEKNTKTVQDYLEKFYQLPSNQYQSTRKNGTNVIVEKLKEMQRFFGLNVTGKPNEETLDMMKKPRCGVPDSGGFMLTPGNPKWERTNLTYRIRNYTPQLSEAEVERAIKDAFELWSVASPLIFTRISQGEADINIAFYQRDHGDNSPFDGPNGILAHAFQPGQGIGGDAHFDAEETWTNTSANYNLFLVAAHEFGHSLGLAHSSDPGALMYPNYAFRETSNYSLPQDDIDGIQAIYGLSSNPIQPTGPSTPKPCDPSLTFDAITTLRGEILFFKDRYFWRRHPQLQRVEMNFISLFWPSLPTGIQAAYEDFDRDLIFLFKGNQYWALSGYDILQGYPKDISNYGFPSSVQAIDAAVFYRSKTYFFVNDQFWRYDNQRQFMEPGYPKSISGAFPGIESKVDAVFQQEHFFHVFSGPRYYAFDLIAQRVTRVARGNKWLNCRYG
# Pseudomonas aeruginosa [11] = assay: Antibacterial activity against penicillin-resistant,quinolone-sensitive Pseudomonas aeruginosa UC12120 clinical isolate infected in sc dosed mouse assessed as host survival administered 0.5 and 4 hrs post-infection measured after 96 hrs; type: functional; details: read-out: PD50
# Matrilysin = Matrilysin (Homo sapiens, UniProt P09237); assay: Inhibition of human MMP7
# [12] = target: Matrix metalloproteinase-25 (Homo sapiens, UniProt Q9NPA2); assay: Inhibition of human MMP25
# [13] = Inhibition of PDE11
# [14] = target: Matrix metalloproteinase-26 (Homo sapiens, UniProt Q9NRE1); assay: Inhibition of human MMP26
# Pseudomonas aeruginosa [15] = assay: Antibacterial activity against mexAB-OprM,mexXY,MexZ-deficient Pseudomonas aeruginosa PAO280 by broth microdilution technique; type: functional
# Collagenase 3 = Collagenase 3 (Homo sapiens, UniProt P45452); assay: Inhibition of human MMP13
# [16] = target: Matrix metalloproteinase-15 (Homo sapiens, UniProt P51511); assay: Inhibition of human MMP15
# Matrix metalloproteinase-15, sequence (P51511 whole entry, the tested form may be a part): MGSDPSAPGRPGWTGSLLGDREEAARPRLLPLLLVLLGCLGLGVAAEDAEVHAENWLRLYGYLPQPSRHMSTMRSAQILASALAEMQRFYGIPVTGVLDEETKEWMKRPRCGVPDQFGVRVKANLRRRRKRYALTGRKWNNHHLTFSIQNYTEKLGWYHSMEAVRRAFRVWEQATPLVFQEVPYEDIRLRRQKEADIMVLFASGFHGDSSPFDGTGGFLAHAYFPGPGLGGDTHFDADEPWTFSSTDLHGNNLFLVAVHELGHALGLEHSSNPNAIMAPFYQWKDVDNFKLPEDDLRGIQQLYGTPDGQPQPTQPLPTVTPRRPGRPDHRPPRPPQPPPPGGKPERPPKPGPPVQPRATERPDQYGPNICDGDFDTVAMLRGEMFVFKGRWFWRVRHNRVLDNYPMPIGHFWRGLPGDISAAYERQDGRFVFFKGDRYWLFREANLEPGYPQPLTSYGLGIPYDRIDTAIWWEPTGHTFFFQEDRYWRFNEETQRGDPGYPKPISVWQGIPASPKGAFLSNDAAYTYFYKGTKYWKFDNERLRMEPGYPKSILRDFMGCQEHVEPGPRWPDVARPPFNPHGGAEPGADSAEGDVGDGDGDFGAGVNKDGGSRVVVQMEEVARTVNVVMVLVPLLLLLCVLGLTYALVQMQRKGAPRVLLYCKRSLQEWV
# [17] = target: Disintegrin and metalloproteinase domain-containing protein 17 (Homo sapiens, UniProt P78536); assay: Inhibition of human TACE
# Disintegrin and metalloproteinase domain-containing protein 17, sequence (P78536 whole entry, the tested form may be a part): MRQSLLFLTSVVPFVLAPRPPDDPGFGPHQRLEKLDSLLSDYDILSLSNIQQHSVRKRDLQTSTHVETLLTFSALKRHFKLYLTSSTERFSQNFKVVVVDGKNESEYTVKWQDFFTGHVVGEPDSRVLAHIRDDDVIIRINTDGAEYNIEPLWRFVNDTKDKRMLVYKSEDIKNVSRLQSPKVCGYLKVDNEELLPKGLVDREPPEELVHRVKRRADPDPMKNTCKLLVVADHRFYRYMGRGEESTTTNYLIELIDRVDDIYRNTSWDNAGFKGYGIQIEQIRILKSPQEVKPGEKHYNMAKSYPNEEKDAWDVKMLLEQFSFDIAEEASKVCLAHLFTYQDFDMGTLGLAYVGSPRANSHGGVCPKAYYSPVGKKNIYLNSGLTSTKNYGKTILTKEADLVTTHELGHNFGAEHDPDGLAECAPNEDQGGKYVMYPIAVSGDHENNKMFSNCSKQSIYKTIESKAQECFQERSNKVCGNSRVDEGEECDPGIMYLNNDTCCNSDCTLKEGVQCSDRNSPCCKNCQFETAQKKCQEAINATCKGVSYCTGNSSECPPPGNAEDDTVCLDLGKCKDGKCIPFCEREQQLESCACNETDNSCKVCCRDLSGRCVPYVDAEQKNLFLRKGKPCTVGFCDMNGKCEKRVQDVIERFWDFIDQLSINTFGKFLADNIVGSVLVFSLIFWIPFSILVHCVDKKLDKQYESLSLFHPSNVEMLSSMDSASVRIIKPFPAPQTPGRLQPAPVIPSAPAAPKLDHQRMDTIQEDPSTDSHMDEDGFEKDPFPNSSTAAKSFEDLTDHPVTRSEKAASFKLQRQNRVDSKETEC
# Pseudomonas aeruginosa [18] = assay: Antibacterial activity against penicillin-resistant,quinolone-sensitive Pseudomonas aeruginosa UC12120 clinical isolate infected in mouse assessed as log reduction in bacterial burden in spleen administered 0.5 and 4 hrs post-infection measured after 24 hrs; type: functional
# [19] = target: Matrix metalloproteinase-20 (Homo sapiens, UniProt O60882); assay: Inhibition of human MMP20
# Pseudomonas aeruginosa [20] = assay: Antibacterial activity against penicillin-resistant,quinolone-sensitive Pseudomonas aeruginosa UC12120 clinical isolate infected in sc dosed mouse administered 0.5 and 4 hrs post-infection measured after 24 hrs; type: functional
# [21] = target: T2, Sodium-dependent noradrenaline transporter (Homo sapiens, UniProt P23975); details: 10 uM
# T2 sequence (P23975 whole entry): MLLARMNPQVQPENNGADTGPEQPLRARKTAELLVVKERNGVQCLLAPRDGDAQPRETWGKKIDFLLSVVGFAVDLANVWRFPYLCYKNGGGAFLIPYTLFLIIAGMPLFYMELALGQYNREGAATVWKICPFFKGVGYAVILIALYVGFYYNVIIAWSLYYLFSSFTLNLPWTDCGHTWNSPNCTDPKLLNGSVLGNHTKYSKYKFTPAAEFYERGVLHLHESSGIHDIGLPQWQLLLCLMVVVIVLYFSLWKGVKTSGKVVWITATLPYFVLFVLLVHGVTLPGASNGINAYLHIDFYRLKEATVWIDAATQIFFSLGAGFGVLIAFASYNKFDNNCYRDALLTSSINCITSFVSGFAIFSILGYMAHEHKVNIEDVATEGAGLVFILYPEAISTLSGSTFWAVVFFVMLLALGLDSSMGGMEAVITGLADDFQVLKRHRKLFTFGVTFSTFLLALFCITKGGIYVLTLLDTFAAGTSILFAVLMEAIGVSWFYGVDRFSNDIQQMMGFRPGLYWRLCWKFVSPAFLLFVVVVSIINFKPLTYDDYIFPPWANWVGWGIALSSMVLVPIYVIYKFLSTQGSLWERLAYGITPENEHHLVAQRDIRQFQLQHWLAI
# Description: Inhibition of human norepinephrine transporter at 10 uM
# [22] = target: Matrix metalloproteinase-24 (Homo sapiens, UniProt Q9Y5R2); assay: Inhibition of human MMP24
# Matrix metalloproteinase-24, sequence (Q9Y5R2 whole entry): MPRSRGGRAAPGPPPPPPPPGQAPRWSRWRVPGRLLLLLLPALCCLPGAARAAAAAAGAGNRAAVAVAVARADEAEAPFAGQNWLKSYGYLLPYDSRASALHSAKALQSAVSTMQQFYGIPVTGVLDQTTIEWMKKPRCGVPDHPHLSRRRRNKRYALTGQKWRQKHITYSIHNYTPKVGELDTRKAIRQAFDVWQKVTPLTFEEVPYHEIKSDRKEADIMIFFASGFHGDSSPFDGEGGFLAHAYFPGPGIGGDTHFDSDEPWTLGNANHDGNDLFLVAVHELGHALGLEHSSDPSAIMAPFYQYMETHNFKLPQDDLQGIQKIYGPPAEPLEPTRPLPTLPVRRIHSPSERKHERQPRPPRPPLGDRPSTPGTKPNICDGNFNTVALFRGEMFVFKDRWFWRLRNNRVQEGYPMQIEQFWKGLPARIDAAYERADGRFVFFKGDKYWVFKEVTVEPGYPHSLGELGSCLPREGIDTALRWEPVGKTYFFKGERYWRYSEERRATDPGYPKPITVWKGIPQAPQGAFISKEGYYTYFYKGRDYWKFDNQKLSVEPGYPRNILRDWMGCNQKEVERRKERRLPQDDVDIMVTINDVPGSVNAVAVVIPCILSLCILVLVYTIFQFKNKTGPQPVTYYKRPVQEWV
# [23] = target: Matrix metalloproteinase-9 (Homo sapiens, UniProt P14780); assay: Inhibition of human MMP9
# Matrix metalloproteinase-9, sequence (P14780 whole entry): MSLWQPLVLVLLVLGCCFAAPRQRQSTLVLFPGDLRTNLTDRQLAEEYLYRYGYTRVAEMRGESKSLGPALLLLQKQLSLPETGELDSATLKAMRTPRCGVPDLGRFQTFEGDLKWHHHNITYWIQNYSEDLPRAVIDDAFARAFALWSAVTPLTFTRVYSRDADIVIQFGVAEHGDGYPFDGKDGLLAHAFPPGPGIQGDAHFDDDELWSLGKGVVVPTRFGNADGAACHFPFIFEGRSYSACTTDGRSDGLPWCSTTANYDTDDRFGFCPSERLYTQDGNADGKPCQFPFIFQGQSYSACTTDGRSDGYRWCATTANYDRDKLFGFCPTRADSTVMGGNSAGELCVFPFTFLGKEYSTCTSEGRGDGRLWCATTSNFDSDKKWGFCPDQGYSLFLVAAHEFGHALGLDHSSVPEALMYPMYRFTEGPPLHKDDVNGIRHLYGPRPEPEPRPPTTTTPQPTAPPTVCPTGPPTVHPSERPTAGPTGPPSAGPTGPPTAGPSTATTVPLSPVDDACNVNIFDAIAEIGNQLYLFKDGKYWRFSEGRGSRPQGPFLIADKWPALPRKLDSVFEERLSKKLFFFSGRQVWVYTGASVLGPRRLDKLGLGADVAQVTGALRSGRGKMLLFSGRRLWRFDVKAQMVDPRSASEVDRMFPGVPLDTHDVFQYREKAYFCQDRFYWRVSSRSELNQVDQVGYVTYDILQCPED
# [24] = target: T2, Sodium-dependent noradrenaline transporter; assay: Inhibition of human norepinephrine transporter
# [25] = target: Matrix metalloproteinase-16 (Homo sapiens, UniProt P51512); assay: Inhibition of human MMP16
# Matrix metalloproteinase-16, sequence (P51512 whole entry): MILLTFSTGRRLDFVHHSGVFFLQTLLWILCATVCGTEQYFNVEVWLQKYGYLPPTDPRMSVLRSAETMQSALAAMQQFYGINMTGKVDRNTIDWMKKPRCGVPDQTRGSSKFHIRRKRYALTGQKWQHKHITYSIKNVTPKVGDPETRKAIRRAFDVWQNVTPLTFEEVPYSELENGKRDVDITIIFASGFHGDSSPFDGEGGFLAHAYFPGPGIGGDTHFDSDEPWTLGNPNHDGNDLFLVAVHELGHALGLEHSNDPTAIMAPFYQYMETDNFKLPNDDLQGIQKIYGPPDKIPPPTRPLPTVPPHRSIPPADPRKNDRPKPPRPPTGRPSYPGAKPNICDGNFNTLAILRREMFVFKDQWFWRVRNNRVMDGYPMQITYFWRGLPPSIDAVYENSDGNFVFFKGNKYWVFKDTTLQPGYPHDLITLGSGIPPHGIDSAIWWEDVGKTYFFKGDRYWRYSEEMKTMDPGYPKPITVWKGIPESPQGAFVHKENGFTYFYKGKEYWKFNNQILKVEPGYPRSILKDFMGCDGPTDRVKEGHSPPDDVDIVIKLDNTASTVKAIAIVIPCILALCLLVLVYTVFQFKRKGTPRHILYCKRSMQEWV
# [26] = target: Macrophage metalloelastase (Homo sapiens, UniProt P39900); assay: Inhibition of human MMP12
compound,measurement,setting,value
C[C@@](CCc1ccc(-c2ccc(O)cc2)cc1)(C(=O)O)S(C)(=O)=O,MIC,Staphylococcus aureus,> 64 mg/L
same,clearance,[1],0.9 L/h/kg
same,MIC,Pseudomonas aeruginosa [2],> 64 mg/L
same,Vd,[3],0.4 L/kg
same,AUC,[4],10.9 µg·h/mL
same,IC50,[5],> 0.0925 µM
same,half-life,[6],0.7 h
C[C@@](CCc1ccc(-c2ccc(F)cc2)cc1)(C(=O)NO)S(C)(=O)=O,MIC90,Acinetobacter baumannii,32 mg/L
same,MIC,Staphylococcus aureus,> 64 mg/L
same,MIC90,Klebsiella pneumoniae,8 mg/L
same,MIC90,Pseudomonas aeruginosa [7],1 mg/L
same,MIC,Pseudomonas aeruginosa [2],0.25 mg/L
same,MIC90,Citrobacter freundii,4 mg/L
same,IC50,[5],0.00174 µM
same,MIC90,Escherichia coli,1 mg/L
same,MIC90,Klebsiella aerogenes,2 mg/L
C[C@H]1[C@H](NC(=O)/C(=N\OC(C)(C)C(=O)O)c2csc(N)n2)C(=O)N1S(=O)(=O)O [AZTREONAM],MIC90,Acinetobacter baumannii,32 mg/L
same,MIC90,Klebsiella pneumoniae,> 64 mg/L
same,MIC90,Pseudomonas aeruginosa [7],64 mg/L
same,MIC90,Citrobacter freundii,> 64 mg/L
same,MIC90,Escherichia coli,> 64 mg/L
same,MIC90,Klebsiella aerogenes,32 mg/L
C[C@@](CCc1ccc(-c2ccc3c(c2)OCO3)cc1)(C(=O)NO)S(C)(=O)=O,MIC90,Acinetobacter baumannii,> 64 mg/L
same,MIC,Staphylococcus aureus,> 64 mg/L
same,MIC90,Klebsiella pneumoniae,4 mg/L
same,MIC90,Pseudomonas aeruginosa [7],1 mg/L
same,MIC,Pseudomonas aeruginosa [2],0.125 mg/L
same,MIC90,Citrobacter freundii,2 mg/L
same,IC50,[5],0.0012 µM
same,MIC90,Escherichia coli,0.5 mg/L
same,MIC90,Klebsiella aerogenes,1 mg/L
NCC[C@H](O)C(=O)N[C@@H]1C[C@H](N)[C@@H](O[C@H]2O[C@H](CN)[C@@H](O)[C@H](O)[C@H]2O)[C@H](O)[C@H]1O[C@H]1O[C@H](CO)[C@@H](O)[C@H](N)[C@H]1O [AMIKACIN],MIC50,Pseudomonas aeruginosa [8],4 mg/L
same,MIC90,Pseudomonas aeruginosa [8],32 mg/L
C[C@@](CCc1ccc(-c2ccccc2)cc1)(C(=O)NO)S(C)(=O)=O,Ki,Stromelysin-2,> 10 µM
same,Ki,Stromelysin-1,> 10 µM
same,Ki,[9],> 10 µM
same,MIC90,Acinetobacter baumannii,32 mg/L
same,Ki,Interstitial collagenase,> 10 µM
same,fraction unbound,[10],0.02
same,Ki,Neutrophil collagenase,> 10 µM
same,MIC,Staphylococcus aureus,> 64 mg/L
same,MIC90,Klebsiella pneumoniae,16 mg/L
same,clearance,[1],3.48 L/h/kg
same,MIC90,Pseudomonas aeruginosa [7],4 mg/L
same,ED50,Pseudomonas aeruginosa [11],63.4 mg/kg
same,MIC,Pseudomonas aeruginosa [2],0.125 mg/L
same,MIC90,Citrobacter freundii,8 mg/L
same,Ki,Matrilysin,> 10 µM
same,Ki,[12],> 10 µM
same,Vd,[3],2.7 L/kg
same,IC50,[13],18 µM
same,Ki,[14],> 10 µM
same,MIC,Pseudomonas aeruginosa [15],0.008 mg/L
same,AUC,[4],2.8 µg·h/mL
same,Ki,Collagenase 3,7.73 µM
same,Ki,[16],> 10 µM
same,Ki,[17],> 10 µM
same,MIC90,Escherichia coli,2 mg/L
same,MIC50,Pseudomonas aeruginosa [8],0.5 mg/L
same,MIC90,Pseudomonas aeruginosa [8],2 mg/L
same,FC,Pseudomonas aeruginosa [18],6.2
same,Ki,[19],> 10 µM
same,ED50,Pseudomonas aeruginosa [20],35 mg/kg
same,MIC90,Klebsiella aerogenes,4 mg/L
same,inhibition,[21],> 50%
same,Ki,[22],> 10 µM
same,Ki,[23],> 10 µM
same,IC50,[24],0.34 µM
same,Ki,[24],0.25 µM
same,Ki,[25],> 10 µM
same,half-life,[6],3.2 h
same,Ki,[26],1.35 µM
O=C(O)c1cn(C2CC2)c2cc(N3CCNCC3)c(F)cc2c1=O [CIPROFLOXACIN],MIC90,Acinetobacter baumannii,64 mg/L
same,MIC,Staphylococcus aureus,0.25 mg/L
same,MIC90,Klebsiella pneumoniae,64 mg/L
same,MIC90,Pseudomonas aeruginosa [7],64 mg/L
same,MIC90,Escherichia coli,> 64 mg/L
same,MIC90,Klebsiella aerogenes,1 mg/L
C[C@@](CCc1ccc(-c2ccc(C#N)cc2)cc1)(C(=O)NO)S(C)(=O)=O,MIC90,Acinetobacter baumannii,16 mg/L
same,MIC,Staphylococcus aureus,> 64 mg/L
same,MIC90,Klebsiella pneumoniae,2 mg/L
same,clearance,[1],3.18 L/h/kg
same,MIC90,Pseudomonas aeruginosa [7],1 mg/L
same,MIC,Pseudomonas aeruginosa [2],0.125 mg/L
same,MIC90,Citrobacter freundii,2 mg/L
same,Vd,[3],1.4 L/kg
same,AUC,[4],3.1 µg·h/mL
same,IC50,[5],0.00064 µM
same,MIC90,Escherichia coli,0.5 mg/L
same,MIC90,Klebsiella aerogenes,1 mg/L
same,half-life,[6],0.6 h
C[C@@](CCc1ccc(-c2ccc(C(=O)CO)cc2)cc1)(C(=O)NO)S(C)(=O)=O,MIC90,Acinetobacter baumannii,> 64 mg/L
same,MIC,Staphylococcus aureus,> 64 mg/L
same,MIC90,Klebsiella pneumoniae,8 mg/L
same,MIC90,Pseudomonas aeruginosa [7],1 mg/L
same,MIC,Pseudomonas aeruginosa [2],0.5 mg/L
same,MIC90,Citrobacter freundii,4 mg/L
same,IC50,[5],0.00185 µM
same,MIC90,Escherichia coli,2 mg/L
same,MIC90,Klebsiella aerogenes,4 mg/L
C[C@@](CCc1ccc(-c2ccc(OCCCN3CCOCC3)cc2)cc1)(C(=O)NO)S(C)(=O)=O,MIC90,Acinetobacter baumannii,> 64 mg/L
same,MIC,Staphylococcus aureus,> 64 mg/L
same,MIC90,Klebsiella pneumoniae,4 mg/L
same,MIC90,Pseudomonas aeruginosa [7],4 mg/L
same,MIC,Pseudomonas aeruginosa [2],2 mg/L
same,MIC90,Citrobacter freundii,1 mg/L
same,MIC90,Escherichia coli,0.5 mg/L
same,MIC90,Klebsiella aerogenes,1 mg/L
C[C@@H](O)[C@H](NC(=O)c1ccc(C#Cc2ccc(CN3CCOCC3)cc2)cc1)C(=O)NO,MIC90,Acinetobacter baumannii,> 64 mg/L
same,MIC,Staphylococcus aureus,> 64 mg/L
same,MIC90,Klebsiella pneumoniae,2 mg/L
same,MIC90,Pseudomonas aeruginosa [7],4 mg/L
same,MIC,Pseudomonas aeruginosa [2],1 mg/L
same,MIC90,Citrobacter freundii,0.5 mg/L
same,MIC90,Escherichia coli,0.25 mg/L
same,MIC90,Klebsiella aerogenes,0.5 mg/L
C[C@@](CCc1ccc(-c2ccc(O)cc2)cc1)(C(=O)NO)S(C)(=O)=O,MIC90,Acinetobacter baumannii,> 64 mg/L
same,MIC,Staphylococcus aureus,> 64 mg/L
same,MIC90,Klebsiella pneumoniae,16 mg/L
same,clearance,[1],3.9 L/h/kg
same,MIC90,Pseudomonas aeruginosa [7],2 mg/L
same,MIC,Pseudomonas aeruginosa [2],0.5 mg/L
same,MIC90,Citrobacter freundii,8 mg/L
same,Vd,[3],2.6 L/kg
same,AUC,[4],2.5 µg·h/mL
same,IC50,[5],0.00368 µM
same,MIC90,Escherichia coli,4 mg/L
same,MIC50,Pseudomonas aeruginosa [8],1 mg/L
same,MIC90,Pseudomonas aeruginosa [8],4 mg/L
same,MIC90,Klebsiella aerogenes,16 mg/L
same,half-life,[6],1.4 h
CC(CCc1ccc(OC2CCCC2)cc1)(C(=O)NO)S(C)(=O)=O (racemic),MIC,Staphylococcus aureus,64 mg/L
same,MIC,Pseudomonas aeruginosa [2],4 mg/L
same,IC50,[5],0.0101 µM
C[C@@](CCc1ccccc1)(C(=O)NO)S(C)(=O)=O,MIC,Staphylococcus aureus,> 64 mg/L
same,MIC,Pseudomonas aeruginosa [2],16 mg/L
same,IC50,[5],> 0.1 µM
CS(=O)(=O)C(CCc1ccc(-c2ccccc2)cc1)C(=O)NO (racemic),MIC,Staphylococcus aureus,> 64 mg/L
same,MIC,Pseudomonas aeruginosa [2],1 mg/L
same,IC50,[5],0.0138 µM
CC(C)(O/N=C(\C(=O)N[C@@H]1C(=O)N2C(C(=O)[O-])=C(C[n+]3ccccc3)CS[C@H]12)c1csc(N)n1)C(=O)O [CEFTAZIDIME],MIC50,Pseudomonas aeruginosa [8],16 mg/L
same,MIC90,Pseudomonas aeruginosa [8],> 64 mg/L
POLYMYXIN B,MIC50,Pseudomonas aeruginosa [8],0.5 mg/L
same,MIC90,Pseudomonas aeruginosa [8],1 mg/L
C[C@@](CCc1ccc(-c2ccc(CN)cc2)cc1)(C(=O)NO)S(C)(=O)=O,MIC,Staphylococcus aureus,> 64 mg/L
same,MIC,Pseudomonas aeruginosa [2],1 mg/L
same,IC50,[5],0.0129 µM
